{"source": "paper PMC4168902", "about": "(2014)", "key": {"[1]": {"tested_on": "poly dAdT–poly dAdT (DNA, polymer) AT", "assay": "UV–vis titration, Scatchard fit", "conditions": "Na+ (sodium cacodylate, I = 0.05 M); sodium cacodylate pH 7.0, 25 °C; polynucleotide as nucleobases/phosphates; per base"}, "[2]": {"tested_on": "poly dA–poly dT (DNA, polymer) A/T", "assay": "UV thermal melting at 260 nm", "conditions": "Na+ (sodium cacodylate, I = 0.05 M); sodium cacodylate pH 7.0; r = [compound]/[polynucleotide] = 0.3; per base"}, "[3]": {"tested_on": "poly A–poly U (poly rA–poly rU) (RNA, polymer) A/U", "assay": "UV thermal melting at 260 nm", "conditions": "Na+ (sodium cacodylate, I = 0.05 M); sodium cacodylate pH 7.0; r = [compound]/[polynucleotide] = 0.3; per base"}, "[4]": {"tested_on": "poly dG–poly dC (DNA, polymer) G/C", "assay": "UV–vis titration, Scatchard fit", "conditions": "Na+ (sodium cacodylate, I = 0.05 M); sodium cacodylate pH 7.0, 25 °C; polynucleotide as nucleobases/phosphates; per base"}, "[5]": {"tested_on": "poly A–poly U (poly rA–poly rU) (RNA, polymer) A/U", "assay": "UV–vis titration, Scatchard fit", "conditions": "Na+ (sodium cacodylate, I = 0.05 M); sodium cacodylate pH 7.0, 25 °C; polynucleotide as nucleobases/phosphates; per base"}, "[6]": {"tested_on": "poly dA–poly dT (DNA, polymer) A/T", "assay": "UV–vis titration, Scatchard fit", "conditions": "Na+ (sodium cacodylate, I = 0.05 M); sodium cacodylate pH 7.0, 25 °C; polynucleotide as nucleobases/phosphates; per base"}, "[7]": {"tested_on": "poly dAdT–poly dAdT (DNA, polymer) AT", "assay": "UV thermal melting at 260 nm", "conditions": "Na+ (sodium cacodylate, I = 0.05 M); sodium cacodylate pH 7.0; r = [compound]/[polynucleotide] = 0.3; per base"}}}
{"smiles": "C[N+](C)(C)CCCOc1ccccc1C(=O)C1=CNc2ccccc2N=CC(C(=O)c2ccccc2OCCCn2cnc3c(N)ncnc32)=CNc2ccccc2N=C1", "values": [{"measurement": "log Ks", "setting": "[1]", "value": 5.5}, {"measurement": "ΔTm", "setting": "[2]", "value": 0, "unit": "°C"}, {"measurement": "ΔTm", "setting": "[3]", "value": 0, "unit": "°C"}, {"measurement": "log Ks", "setting": "[4]", "value": 5.7}, {"measurement": "log Ks", "setting": "[5]", "value": 5.8}, {"measurement": "log Ks", "setting": "[6]", "value": 5.9}, {"measurement": "ΔTm", "setting": "[7]", "value": "< 2", "unit": "°C"}]}
{"smiles": "CCCCCCOc1ccccc1C(=O)C1=CNc2ccccc2N=CC(C(=O)c2ccccc2OCCC[n+]2ccccc2)=CNc2ccccc2N=C1", "values": [{"measurement": "ΔTm", "setting": "[2]", "value": 0, "unit": "°C"}, {"measurement": "ΔTm", "setting": "[3]", "value": 0, "unit": "°C"}, {"measurement": "ΔTm", "setting": "[7]", "value": 0, "unit": "°C"}]}
{"smiles": "Nc1ncnc2c1ncn2CCCCCCOc1ccccc1C(=O)C1=CNc2ccccc2N=CC(C(=O)c2ccccc2OCCCCCC[n+]2ccccc2)=CNc2ccccc2N=C1", "values": [{"measurement": "ΔTm", "setting": "[2]", "value": 0, "unit": "°C"}, {"measurement": "ΔTm", "setting": "[3]", "value": 0, "unit": "°C"}, {"measurement": "log Ks", "setting": "[4]", "value": 5.6}, {"measurement": "log Ks", "setting": "[5]", "value": 5.7}, {"measurement": "log Ks", "setting": "[6]", "value": 5.0}, {"measurement": "ΔTm", "setting": "[7]", "value": 0, "unit": "°C"}]}
{"smiles": "Nc1ncnc2c1ncn2CCCOc1ccccc1C(=O)C1=CNc2ccccc2N=CC(C(=O)c2ccccc2OCCC[n+]2ccccc2)=CNc2ccccc2N=C1", "values": [{"measurement": "log Ks", "setting": "[1]", "value": 6.1}, {"measurement": "ΔTm", "setting": "[2]", "value": 0.7, "unit": "°C"}, {"measurement": "ΔTm", "setting": "[3]", "value": 0.5, "unit": "°C"}, {"measurement": "log Ks", "setting": "[4]", "value": 5.5}, {"measurement": "log Ks", "setting": "[5]", "value": 6.0}, {"measurement": "log Ks", "setting": "[6]", "value": 6.2}, {"measurement": "ΔTm", "setting": "[7]", "value": "< 3", "unit": "°C"}]}
{"smiles": "Nc1ncnc2c1ncn2CCCCCOc1ccccc1C(=O)C1=CNc2ccccc2N=CC(C(=O)c2ccccc2OCCCCC[n+]2ccccc2)=CNc2ccccc2N=C1", "values": [{"measurement": "log Ks", "setting": "[4]", "value": 5.8}, {"measurement": "log Ks", "setting": "[5]", "value": 6.6}, {"measurement": "log Ks", "setting": "[6]", "value": 5.4}]}
